Measurements as given in US12050218B2, “Mitochondrial protease OMA1 as a marker for breast cancer” (NUtech Ventures, priority 2017, dated 2024).

Experiments:
[1] = test system: oma1−/− mouse embryonic fibroblasts; assay: Cell viability / growth rate of MEF cells under glutamate pathway inhibition; type: cell-based; conditions: 10 μM BPTES, low glucose or 10 mM galactose medium; oma1−/− vs wild type MEFs (FIG. 1B)
Protocol: FIG. 1A depicts extracellular acidification rates (ECAR) in wild type and oma1^−/− mouse embryonic fibroblasts under basal, FCCP-stimulated, and glycolysis-ablating (2-DG) conditions. Cells were cultured in the media containing 10 mM glucose. Data are shown as mean values of 3 independent experiments±S.E.M.; **p<0.01, by unpaired t-test. FIG. 1B depicts growth rate of wild type (WT) and oma1^−/− MEF cells under conditions of glutamate pathway inhibition by BPTES. Cells were cultured in the 10 mM galactose-containing medium with (left panel) or without (right panel) 10 μM BPTES for the indicated periods of time and the number of viable cells at each time point has been assessed. […] FIG. 1D depicts the prevalence of cells with protrusions was analyzed in WT and oma1^−/− MEF cells two days after re-seeding on 6-well plates after one week of growth at 100% confluence. […] Of the cells in the field of view, the number of cells with long lamellopodia and cells with normal lamellopodia were counted. […]
(§1) The wild type and oma1^−/− mouse embryonic fibroblasts (24, obtained from Dr. Carlos Lopez-Otin, University of Oviedo) were seeded into 12-well plates at the density of 4×10^4 cells per well. […] Every 24 hours cells, from one well per condition were trypsinized with 0.05% Trypsin (Life Technologies), washed with Ca-, Mg-PBS, resuspended and counted in Countess Automated Cell Counter (Life Technologies). […]

[2] = test system: OMA1-depleted 21MT-1 cells; assay: Growth rate of control and OMA1-depleted 21MT-1 cells under glutamate pathway inhibition; type: cell-based, human; conditions: 10 μM BPTES, 10 mM galactose medium; OMA1 KD vs control 21MT-1 cells (FIG. 3C)
Protocol: FIG. 3A depicts a representative oxygen consumption rate (OCR) graph in control and OMA1-depleted 21MT-1 cells under basal, oligomycin A (OLA), FCCP, and Antimycin A/Rotenone (AA+Rot.) stimulated conditions. Cells were cultured in the medium containing 10 mM galactose. FIG. 3B depicts respiratory control ratios in control and OMA1 KD 21MT-1 cells cultured in 10 mM galactose medium. Data represent the mean±S.E.M. (n=3 biological replicates); *p<0.05, by t-test. FIG. 3C depicts the growth rate of control and OMA1-depleted 21MT-1 cells under conditions of glutamate pathway inhibition. Cells were cultured in the 10 mM galactose-containing medium in the presence of 10 μM BPTES for the indicated periods of time and the number of viable cells at each time point has been assessed. Data represent the mean±S.D. (n=3 biological replicates); *p<0.05, ***p<0.001, by unpaired t-test.
as §1

O=C(Cc1ccccc1)Nc1nnc(CCSCCc2nnc(NC(=O)Cc3ccccc3)s2)s1 [BPTES]
proliferation of oma1−/− MEFs compared with wild type cells [1]: proliferated at much slower rates than wild type cells | sensitivity of OMA1-depleted 21MT-1 cells to glutaminase inhibitor [2]: marked increase in sensitivity
